Our source for the IC50 values is patent publication US8518958B2, “Pyrido [2,3-D] pyrimidines and their use as kinase inhibitors” (Forma Therapeutics, Inc., priority 2006, dated 2013).

Assay [1] has as its target B-Raf delta1-415 (Homo sapiens, UniProt P15056). The assay is described as follows: B-Raf kinase inhibition (MAPH filter plate, 33P-ATP, MEK1 substrate). The conditions noted are these: read-out: Biochemical IC50 B-Raf. In outline:
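Radiometric filter-binding assay with B-Raf delta1-415 at a level giving 50% turnover, MEK1 substrate and 33P-ATP (12.5 μCi/ml) in 20 mM Mops pH 7.0 with Mg/Mn, 1 h at room temperature. Inhibitor dilution series from 10 μM; EDTA-stopped reactions captured on phosphocellulose filters, counted by scintillation for IC50.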

The target in assay [2] is C-Raf Raf-1 (truncated), active (Homo sapiens, UniProt P04049, Y340D/Y341D). The assay is described as follows: C-Raf kinase inhibition (MAPH assay / IMAP assay). Conditions: read-out: Biochemical IC50 C-Raf. From the text:
We characterized the in vitro inhibitory activity against protein kinases of compounds of the present invention by determining their IC50 values (see Table 2).
Kinase: C-Raf Raf-1 (truncated), active (Upstate; cat. no. 14-352)
Reaction Temperature: room temperature
Assay Plate: 96 well U bottom plate (Greiner, 650161)
MultiScreen-PH Plate: 96 well MAPH Filter Plates (Millipore, MAPHNOB50)
Filter Washing Solution: 0.75% H3PO4
Scintillation Liquid: Supermix Liquid Scintillator (PerkinElmer, 1200-439)
Negative Control (C−): 100 mM EDTA, no inhibitor
Positive Control (C+): no inhibitor
Reaction Buffer (Final Concentration):
Final Assay Concentrations:
Kinase: Use kinase conc. yielding 10% ATP turnover as determined in titration experiment.
Adenosine 5′-[γ-^33P]triphosphate: 12.5 μCi/ml (Amersham Biosciences, BF1000)
Substrate: Myelin Basic Protein 57.8 μM (Invitrogen, 13228-010)
Pipetting Sequence: • 1) Add 10 μl 4-fold concentrated substrate+4-fold concentrated ATP in 3-fold concentrated reaction buffer to each well of assay plate • 2) Add 10 μl […] concentrated inhibitor in 4% DMSO in H2O to each well except to C− and C+ wells (starting point: final inhibitor concentration 10 μM; IC50 determination based on dilution series) • 3) Add 10 μl 4% DMSO in H2O to C− and C+ wells • 4) Add 10 μl 500 mM EDTA in H2O to C− wells • 5) Add 10 μl 50 μCi/ml adenosine 5′-[γ-^33P]triphosphate in H2O to each well • 6) Add 10 μl […] concentrated kinase in Reaction Buffer to each well • 7) Incubate 1 hr at room temperature • 8) Add 10 μl 50 mM EDTA in H2O to each well except to C− wells • 9) Prepare MAPH plates by adding 200 μl 0.75% H3PO4 to each well • 10) Exhaust 0.75% H3PO4 using Millipore vacuum station • 11) Add 60 μl 0.75% H3PO4 to each well of MAPH filter plate • 12) Transfer 30 μl sample per well from assay plate to corresponding well of MAPH filter plate • 13) Incubate 30 min at room temperature • 14) Wash each well of MAPH filter plates 3× with 200 μl 0.75% H3PO4 using Millipore vacuum station • 15) Add 20 μl scintillation liquid to each well of MAPH filter plate • 16) Seal MAPH filter plate • 17) Store MAPH filter plate 30 min in darkness • 18) Quantify radioactivity using scintillation counter (MicroBeta, Perkin-Elmer)
Reaction Volume: 8.0108 μl
IMAP Incubation Time: 60 min
Assay Plate: 384 well U bottom, PP, black, low volume (Corning, 3676)
Compound Plate: 384 well U bottom, PS (Falcon, 3995)
IMAP Binding Buffer A: Molecular Devices, R7282
IMAP Binding Buffer B: Molecular Devices, R7283
IMAP Binding Reagent: Molecular Devices, R7207
Negative Control (C−): no kinase, no inhibitor
Reation buffer: 20 mM Hepes, pH 7.5 • 1 mM DTT • 10 mM MnCl2 • 0.01% Brij35
Kinase: Kinase conc. yielding 50% substrate turnover as determined in titration experiment • c-Raf (Upstate 14-352)
Substrate: 5F1-SGQLIDSMANSFV-NH2 400 nM (jpt Peptide Technologies GmbH, Berlin, Germany)
IMAP Binding Solution: 75% IMAP Binding Buffer A • 25% IMAP Binding Buffer B • IMAP Binding Reagent 1:800
Pipetting Sequence: • 1) Add 6 μl 1.33-fold concentrated substrate+1.33-fold concentrated ATP in 1-fold concentrated reaction buffer to each well of assay plate • 2) Add 10.8 nl 740-fold concentrated inhibitor in 100% DMSO to each well except to C− and C+ wells using pintool (CyBio, Jena, Germany) (starting point: final inhibitor concentration 10 μM; IC50 determination based on dilution series) • 3) Add 10.8 nl 100% DMSO to C− and C+ wells using pintool • 4) Add 2 μl reaction buffer to C− wells • 5) Add 2 μl 4-fold concentrated kinase in reaction buffer to each well except C− wells • 6) Incubate according to reaction time at room temperature • 7) Add 15 μl IMAP binding solution to each well • 8) Incubate according to IMAP incubation time at room temperature • 9) Measure fluorescence polarization (Analyst GT, Molecular Devices)

The test system of assay [3] is HT-29 tumor cells. The assay is described as follows: Anti-proliferative activity, SRB assay. The assay is classed as cell-based, human. Conditions: Homo sapiens, HT-29, 72 h, 72 hours exposure, read-out: CELLULAR IC50 HT-29. In outline: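 Cells at 3,000-15,000/well, plated 24 h before compound, exposed to a concentration range for 72 hours. Proliferation measured by SRB staining after cold TCA fixation, absorbance at OD570; IC50 estimated from % inhibition versus DMSO-treated cells.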
(In general: In SRB staining, fixed cells bind dye roughly in proportion to their protein.)

Bounds are passed on as bounds.

One may read the IC50 as the point on the concentration scale where inhibition reaches its midpoint.

B-Raf delta1-415, sequence (P15056 416-766): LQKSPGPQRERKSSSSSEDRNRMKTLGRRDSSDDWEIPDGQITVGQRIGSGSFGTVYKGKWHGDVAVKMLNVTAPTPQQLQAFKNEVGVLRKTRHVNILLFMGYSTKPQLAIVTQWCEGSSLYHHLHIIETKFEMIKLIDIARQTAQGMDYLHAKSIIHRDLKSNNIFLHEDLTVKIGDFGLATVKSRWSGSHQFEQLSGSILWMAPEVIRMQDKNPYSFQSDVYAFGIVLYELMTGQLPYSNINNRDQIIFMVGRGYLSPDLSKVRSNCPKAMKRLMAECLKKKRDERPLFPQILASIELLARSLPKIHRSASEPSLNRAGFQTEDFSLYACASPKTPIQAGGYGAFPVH
C-Raf Raf-1 (truncated), active, sequence (P04049 306-648 Y340D/Y341D): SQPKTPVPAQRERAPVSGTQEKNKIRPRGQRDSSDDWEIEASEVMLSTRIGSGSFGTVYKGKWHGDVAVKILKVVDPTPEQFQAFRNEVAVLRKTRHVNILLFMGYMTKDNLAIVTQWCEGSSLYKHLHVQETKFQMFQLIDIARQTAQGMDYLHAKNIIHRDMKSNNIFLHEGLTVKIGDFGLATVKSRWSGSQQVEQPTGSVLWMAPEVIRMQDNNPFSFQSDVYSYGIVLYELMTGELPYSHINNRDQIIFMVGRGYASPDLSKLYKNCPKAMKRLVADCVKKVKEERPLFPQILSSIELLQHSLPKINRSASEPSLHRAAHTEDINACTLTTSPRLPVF

For the compound `COc1cccc(Nc2ncc3cc(-c4c(Cl)cccc4Cl)c(=O)n(OC)c3n2)c1` [Compound 3, 6-(2,6-Dichlorophenyl)-8-methoxy-2-(3-methoxyphenylamino)-pyrido[2,3-d]pyrimidin-7-one], the IC50 was less than 100 nM in assay [1], less than 100 nM in assay [2] and less than 1000 nM in assay [3].
Turning to `COn1c(=O)c(-c2c(Cl)cccc2Cl)cc2cnc(N)nc21` [Compound 46, 2-Amino-6-(2,6-dichlorophenyl)-8-methoxy-pyrido[2,3-d]pyrimidin-7-one], the IC50 in assay [1] is less than 500 nM; in assay [2], less than 100 nM; in assay [3], less than 10000 nM.
Taken in the same sequence, the figures for `COn1c(=O)c(-c2c(Cl)cccc2Cl)cc2cnc(Nc3cccc(CN4CCCC4)c3)nc21` [Compound 21, 6-(2,6-Dichlorophenyl)-8-methoxy-2-(3-(pyrrolidin-1-yl)methylphenylamino)-pyrido[2,3-d]pyrimidin-7-one] were less than 500 nM, less than 100 nM and less than 1000 nM.
Taken in the same sequence, the figures for `COn1c(=O)c(-c2ccccc2Cl)cc2cnc(Nc3cccc(CO)c3)nc21` [Compound 5, 6-(2-Chlorophenyl)-8-methoxy-2-(3-hydroxymethylphenylamino)-pyrido[2,3-d]pyrimidin-7-one] were less than 500 nM, less than 100 nM and less than 1000 nM.
Consider `COn1c(=O)c(-c2c(C)cccc2C)cc2cnc(Nc3cccc(S(N)(=O)=O)c3)nc21` [Compound 72, 6-(2,6-Dimethylphenyl)-8-methoxy-2-(3-sulfamoylphenylamino)-pyrido[2,3-d]pyrimidin-7-one], for which the IC50 in assay [2] is less than 100 nM; in assay [3] it was less than 1000 nM.
Regarding `COn1c(=O)c(-c2ccccc2)cc2cnc(Nc3cccc(CO)c3)nc21` [Compound 43, 2-(3-Hydroxymethylphenylamino)-8-methoxy-6-phenyl-pyrido[2,3-d]pyrimidin-7-one], the concentration for half-maximal inhibition (IC50) in assay [1] was less than 5000 nM; in assay [2], less than 100 nM; in assay [3], less than 10000 nM.
Taken in the same sequence, the figures for `NCCCCOn1c(=O)c(-c2c(Cl)cccc2Cl)cc2cnc(Nc3ccccc3)nc21` [Compound 34, 8-(4-Aminobutoxy)-6-(2,6-dichlorophenyl)-2-phenylamino-pyrido[2,3-d]pyrimidin-7-one] were less than 1000 nM, less than 100 nM and less than 1000 nM.
For `COn1c(=O)c(-c2c(Cl)cccc2Cl)cc2cnc(Nc3cc(CO)ccc3C)nc21` [Compound 45, 6-(2,6-Dichlorophenyl)-2-((2-methyl-5-hydroxymethylphenyl)-amino)-8-methoxy-pyrido[2,3-d]pyrimidin-7-one] the same measures were less than 500 nM, less than 100 nM and less than 10000 nM.
For `COn1c(=O)c(-c2c(Cl)cccc2Cl)cc2cnc(Nc3ccc(S(C)(=O)=O)cc3)nc21` [Compound 11, 6-(2,6-Dichlorophenyl)-8-methoxy-2-(4-methylsulfonylphenylamino)-pyrido[2,3-d]pyrimidin-7-one] the same measures were less than 100 nM, less than 100 nM and less than 1000 nM.
Take `COn1c(=O)c(-c2cc(NC(=O)c3ccccc3)ccc2Cl)cc2cnc(Nc3ccc(N4CCN(C)CC4)cc3)nc21` [Compound 9, 6-(5-Benzoylamino-2-chloro-phenyl)-8-methoxy-2-(4-(4-methylpiperazino)-phenylamino)-pyrido[2,3-d]pyrimidin-7-one]: the figures for the IC50 in assay [1], in assay [2] and in assay [3] were less than 500 nM, less than 100 nM and less than 1000 nM, respectively.
For `CC(C)(C)On1c(=O)c(-c2ccccc2Cl)cc2cnc(Nc3ccccc3)nc21` [Compound 63, 6-(2-Chlorophenyl)-8-(1,1-dimethyl)ethyloxy-2-phenylamino-pyrido[2,3-d]pyrimidin-7-one] the same measures were less than 10000 nM, less than 10000 nM and greater than 10000 nM.
For `COn1c(=O)c(-c2cc(N)ccc2Cl)cc2cnc(Nc3ccccc3)nc21` [Compound 23, 6-(5-Amino-2-chlorophenyl)-8-methoxy-2-phenylamino-pyrido[2,3-d]pyrimidin-7-one] the same measures were less than 500 nM, less than 100 nM and less than 10000 nM.
Taken in the same sequence, the figures for `COn1c(=O)c(-c2c(Cl)cccc2Cl)cc2cnc(Nc3ccncc3)nc21` [Compound 13, 6-(2,6-Dichlorophenyl)-8-methoxy-2-(pyrid-4-ylamino)-pyrido[2,3-d]pyrimidin-7-one] were less than 100 nM, less than 100 nM and less than 1000 nM.
Take `COc1cccc(Nc2ncc3cc(-c4ccccc4Cl)c(=O)n(OC)c3n2)c1` [Compound 7, 6-(2-Chlorophenyl)-8-methoxy-2-(3-methoxyphenylamino)-pyrido[2,3-d]pyrimidin-7-one]: the figures for the half-inhibitory concentration (IC50) in assay [1], in assay [2] and in assay [3] were less than 1000 nM, less than 100 nM and less than 1000 nM, respectively.
In the case of `COc1ccccc1-c1cc2cnc(Nc3ccc(OCCN(C)C)cc3)nc2n(OC)c1=O` [Compound 50, 2-(4-(2-Dimethylaminoethoxy)-6-(2-methoxyphenyl)-phenylamino)-8-methoxy-pyrido[2,3-d]pyrimidin-7-one], the IC50 in assay [1] is greater than 1000 nM; in assay [2] it was less than 1000 nM; in assay [3], less than 10000 nM.
For `COn1c(=O)c(-c2ccc(Cl)cc2Cl)cc2cnc(Nc3ccc(OCCN(C)C)cc3)nc21` [Compound 16, 6-(2,4-Dichlorophenyl)-8-methoxy-2-(4-(2-dimethylaminoethoxy)-phenylamino)-pyrido[2,3-d]pyrimidin-7-one], the half-maximal inhibitory concentration (IC50) is less than 500 nM in assay [1], less than 500 nM in assay [2] and less than 1000 nM in assay [3].
`COn1c(=O)c(-c2c(F)cccc2Cl)cc2cnc(Nc3ccc(OCCN(C)C)cc3)nc21` [Compound 8, 6-(2-Chloro-6-fluorophenyl)-8-methoxy-2-(4-(2-dimethylaminoethoxy)-phenylamino)-pyrido[2,3-d]pyrimidin-7-one]: the concentration for half-maximal inhibition (IC50) in assay [1] was less than 100 nM; in assay [2] it was less than 100 nM; in assay [3], less than 1000 nM.
Regarding `COn1c(=O)c(-c2ccccc2Cl)cc2cnc(Nc3ccccc3)nc21` [Compound 22, 6-(2-Chlorophenyl)-8-methoxy-2-phenylamino-pyrido[2,3-d]pyrimidin-7-one], the IC50 in assay [1] is less than 500 nM; in assay [2], less than 100 nM; in assay [3], less than 10000 nM.
